# Experimental data: patent publication US20240189388A1, “MEDICATION FOR TREATING LUNG INJURY” (SHANGHAI SEME CELL TECHNOLOGY CO., LTD., priority 2021, published 2024)
# Legend:
# [1] = system: rats with a lung injury; test: Blood gas test, LPS lung injury rats (Example 2); assay type: in vivo, Sprague-Dawley rats
# Experimental: (§1) D0: The animals in the normal control group were intraperitoneally injected with sodium chloride injection (1 ml/kg), while the animals in other groups were intraperitoneally injected with lipopolysaccharides (1 mg/kg, 1 ml/kg).
# (§2) D1: After 16 h (+30 min) of intraperitoneal injection, the animals were anesthetized by inhaling isoflurane. The animals in the normal control group were nebulized with sodium chloride injection (1 mL/kg) in the trachea, while the animals in other groups were nebulized with lipopolysaccharides (5 mg/kg, 1 ml/kg) in the trachea.
# (§3) Administration frequency and duration: On D1, the animals were administered for the first time within 3 h after the intratracheal nebulization with the modeling reagent (LPS); and on D2, the animals were administered for the second time. The interval between the two administrations was about 24 h (+20 min).
# Test time: the day after the second administration (D3)
# Sample collection: The rats were anesthetized by intraperitoneal injection with chloral hydrate (350 mg/kg, 100 mg/mL), and their abdominal midline was longitudinally incised to separate the abdominal aorta. About 0.2 mL of arterial blood was collected with an arterial blood sampler. A syringe in the blood sampler was rubbed in the palm and turned upside down for 5 seconds to ensure that the blood was never returned to the blood sampler for blood mixing treatment.
# Testing method: After the arterial blood was collected, a needle was gently inserted into a blood injection port of a test card, and the blood was gently pushed in and filled a sample filling tube. When the blood reached an adding position, the adding of the sample was stopped, a lid was closed, and the blood automatically entered the test tube. The test card was inserted into a blood gas analyzer to wait for test results.
# Test indicators: PO2 (mmHg), PCO2 (mmHg), pH, and sO2%.
# [2] = system: rats with a lung injury; test: BALF white blood cell count and classification (Example 2); assay type: in vivo, Sprague-Dawley rats; conditions: D3, 0.75 mg/kg i.v. twice, 6 rats, x ± SD
# Experimental: as §1, §2, §3
# Sample collection: After the animals were euthanatized, the skin and tissues of the neck and chest were incised to expose the trachea, bronchi, and lungs. The bronchi in the right lung were separated and ligated. A suture was threaded under the trachea, a ½ incision was made between cartilage rings of the trachea at an appropriate position under the thyroid cartilage, a trachea cannula was slowly inserted along the incision into the airway to a left bronchus, and the inserted cannula was fastened with the trachea by using the threaded suture at an appropriate position in a centripetal direction of the incision. 3 ml of PBS buffer was slowly injected with a syringe for bronchoalveolar lavage. The lavage was repeated 3 times, with each remaining for about 10 seconds. The lavage solution was collected into a centrifuge tube of appropriate capacity.
# BALF treatment: The collected lavage solution was centrifuged at 4° C. and approximately 2000 rpm for 20 min. The supernatant was stored below −60° C. for later use. The precipitate was re-suspended with I mL of PBS buffer for count and classification of white blood cells. The supernatant after BALF centrifugation was managed as a sample by using a Watson LIMS7.5 system.
# Classification and test of white blood cells: White blood cells in the re-suspended BALF were counted and classified by a fully automatic blood cell analyzer.
# [3] = system: rats with a lung injury; test: Wet/dry ratio of the lung (Example 2); assay type: in vivo, Sprague-Dawley rats
# Experimental: as §1, §2, §3
# During the autopsy, whether the lungs, trachea, and bronchi of the animals were abnormal were observed. […]
# Foreign matters such as blood and tissue fluid on the surface of the middle lobe tissues of the right lung were wiped with a paper towel, the right lung was weighed, then the middle lobe tissues of the right lung were placed in a 60° C. oven for 72 h, the right lung was weighed again, and the wet/dry weight ratio of the lung was calculated. […]
# [4] = system: LPS-induced acute respiratory distress syndrome; test: BALF neutrophil count and percentage, LPS-induced ARDS rat model (Example 1); assay type: in vivo, SD rats
# Experimental: Normal adult male SD rats were randomly grouped, 5 rats in each group. The animals were intraperitoneally injected and nebulized in the trachea with lipopolysaccharides (LPS) as a modeling reagent, as shown in Table 1:
# The animals in groups G1 and G2 were intraperitoneally injected with lipopolysaccharides (0.8 mg/kg. body weight) according to their body weight, anesthetized by inhaling isoflurane after 16 h of the intraperitoneal injection, and nebulized with lipopolysaccharides (5 mg/kg. body weight) in the trachea.
# Intraperitoneal injection with lipopolysaccharides (LPS): According to the body weight of the animals, each animal was administered with lipopolysaccharides by intraperitoneal injection with a disposable micro syringe.
# Intratracheal nebulization with lipopolysaccharides (LPS): Each animal was anesthetized by inhaling isoflurane and then fixed on a rat fixator placed at a 45° angle, the root of the animal's tongue was pressed by a small animal anesthesia laryngoscope to expose the glottis, a pulmonary micro liquid nebulizer needle (blunt) that extracted a quantitative solution of LPS was gently inserted into the trachea, then the piston was quickly pushed to atomize the LPS solution into the lung, the needle was quickly pulled out, and the animal was taken down from the fixator and rotated left and right with its head facing upwards to distribute LPS as evenly as possible in each lung lobe.
# The animals were administered for the first time within 1 h after the intratracheal nebulization with the modeling reagent (LPS), and the second time after 24 h.
# The day after the end of the second administration (48 h after the intratracheal nebulization with the modeling reagent).
# Collection of samples: On the day after the second administration, all groups of animals were euthanized with CO2, then their abdominal cavities were opened, and their abdominal arteries were cut for bleeding. […] Precipitated cells were re-suspended with 1 ML PBS, and total cells in the BALF were counted by a blood cell counter and trypan blue staining. […]
# [5] = arterial blood, D3, 0.75 mg/kg i.v. twice, 6 rats, x ± SD
# [6] = G2 mean, 5 rats, 1 mg/kg caudal vein injection twice, 48 h after LPS nebulization
substance,measurement,setting,value
Annexin A5,PCO2,[1]; [5],46.63 ± 6.17 mmHg
same,PO2,[1]; [5],82.5 ± 8.7 mmHg
same,pH,[1]; [5],7.372 ± 0.049
same,sO2 %,[1]; [5],95.5 ± 1.0 %
same,Change in the pH indicator,[1]; test sample group,no significant change
same,"Change of PO2, sO2% and PCO2 after administration",[1]; test sample group vs model control group,all increased with statistical differences
same,Lymphocytes in BALF,[2],0.58 ± 0.22 ×10^9 cells/L
same,Monocytes in BALF,[2],0.38 ± 0.47 ×10^9 cells/L
same,Neutrophils in BALF,[2],2.54 ± 2.07 ×10^9 cells/L
same,White blood cell in BALF,[2],3.63 ± 2.05 ×10^9 cells/L
same,Wet/dry ratio of the lung,"[3]; middle lobe of right lung, 0.75 mg/kg i.v. twice, 6 rats, x ± SD",4.68 ± 0.08
same,Change of wet/dry ratio of the lung,[3]; test sample group,decreased
same,Effect on count of neutrophils (Neu cells) in the BALF,[4]; G2 compared to model control group G1,significantly inhibited
same,Neu cell counts in the BALF,[4]; [6],7.03 *10^6
same,Percentages of Neu cells in the BALF,[4]; [6],36.80%
